Results: patent US11565264B2, “Expandable arrays and methods of use” (Rutgers, The State University of New Jersey, priority 2018, dated 2023)

Columns and labels:
GBM PDOs = experiment: 72-hour drug treatment of GBM patient derived organoids (PDOs) in basket arrays; type: cell-based; conditions: 72-hour treatment
Protocol: The basket arrays were used to deploy rapid single cell derived sphere and organoid assays to assess tumor cell viability, tumor invasion, terminal differentiation and resistance to therapy for cancer drug discovery and drug validation. […] PDOs were treated for 72-hours with standard chemotherapy (TMZ) and/or molecularly targeted agents, targeting mTOR, PI3K, BMI1, EGFR, and DDR, among others. Following treatments, the entire 4D printed basket arrays were evolved, with a 10-min heating step at 50° C., to their programmable cassette size to directly perform histological and IHC validation on the same day, and with the convenience of maintaining the same tissue plate arrangement. The concentrations inhibiting viability by 50% (GI50), real time activated caspase 3 for detection of apoptotic cells and GBM tumor cell invasion in live intact organoid cells were less impacted by standard TMZ than targeted therapies.

U87 spheres = conditions: read-out: EC50 (median dose); GBM cell viability
Source text: FIG. 15A illustrates the results of the cell titer glo assay that utilizes ATP levels and was used to determine GBM viability in the presence of component biomaterials. FIGS. 15B and 15C are low-power images of bright fields of spheres cultured for one week in the presence of the indicated chemicals and concentrations. The insets are higher power (20×) magnification of the 5× images.

[1] = live intact organoid cells, TMZ compared with targeted therapies

Compound | EGFR expression in organoid cells (GBM PDOs) | GBM tumor cell invasion (GBM PDOs; [1]) | concentrations inhibiting viability by 50% (GI50) (GBM PDOs; [1]) | real time activated caspase 3 for detection of apoptotic cells (GBM PDOs; [1]) | EC50 (U87 spheres) [µM]
Cn1nnc2c(C(N)=O)ncn2c1=O [TMZ] | not affected | less impacted | less impacted | less impacted | 
poly (Ethylene glycol) diacrylate 250 [PEGDA250] |  |  |  |  | 7.2
